# Like-named read-outs stand apart in the source and are kept apart here.
# Assays:
# B. subtilis ATCC6633 = assay: Antimicrobial broth micro-dilution assay (MIC); assay type: cell-based; conditions: Bacillus subtilis, read-out: Minimum inhibitory concentration (MIC)
# From the text: (§1) 3. Bioactivity and Toxicity Assays
# (§2) Antimicrobial assay: According to the standard broth micro-dilution assays, following the Standards of European Committee on Antimicrobial Susceptibility Testing (v 7.3.1: Method for the determination of broth dilution minimum inhibitory concentrations of antifungal agents for yeasts) for Candida spp., and according to the standard broth micro-dilution assays, recommended by the National Committee for Clinical Laboratory Standards (M07-A8) for bacteria MIC values of compounds were determinate. Compounds were dissolved in DMSO at a concentration of 50 mg/mL, and the highest tested concentration was 250 µg/mL. The inoculums were 1x10^5 colony forming units (CFU/mL), for Candida species, and bacteria species, 5x10^5 colony forming units (CFU/mL). The MIC value was recorded as the lowest concentration that inhibited the growth after 24 h at 37 °C. Additionally, 5 µL from each well of 96 well plates was transferred to Luria Agar (LA) plates for bacteria and Sabouraud agar (SAB) plates for Candida spp. and incubated for an additional 24 h at 37 °C, to determine MBC (Minimum bactericidal/fungicidal concentration) values. In Table 1. Are labeled compounds showing a difference in MBC and previously determined MIC values. […]
# C. albicans ATCC10231 = assay: Antimicrobial broth micro-dilution assay (MIC); assay type: cell-based; conditions: Candida albicans, read-out: Minimum inhibitory concentration (MIC)
# From the text: as §1, §2
# P. aeruginosa ATCC27853 = assay: Antimicrobial broth micro-dilution assay (MIC); assay type: cell-based; conditions: Pseudomonas aeruginosa, read-out: Minimum inhibitory concentration (MIC)
# From the text: as §1, §2
# S. aureus MRSA = assay: Antimicrobial broth micro-dilution assay (MIC); assay type: cell-based; conditions: Staphylococcus aureus, read-out: Minimum inhibitory concentration (MIC)
# From the text: as §1, §2
# E. coli NCTC9001 = assay: Antimicrobial broth micro-dilution assay (MIC); assay type: cell-based; conditions: Escherichia coli, read-out: Minimum inhibitory concentration (MIC)
# From the text: as §1, §2
# S. aureus ATCC25923 = assay: Antimicrobial broth micro-dilution assay (MIC); assay type: cell-based; conditions: Staphylococcus aureus, read-out: Minimum inhibitory concentration (MIC)
# From the text: as §1, §2
# [1] = tested on: two S. aureus strains and B. subtilis ATCC6633; assay: Antimicrobial assay, Gram-positive bacteria; assay type: cell-based; conditions: from MIC values
# From the text: as §1, §2
# Caenorhabditis elegans = assay: In vivo toxicity C. elegans survival assay; conditions: C. elegans model
# Procedure: 3. Bioactivity and Toxicity Assays […]
# Compounds were dissolved in DMSO at a concentration of 50 mg/mL, and the highest tested concentration was 250 µg/mL. […]
# In vivo toxicity C. elegans assay: The C. elegans survival assay was carried out as described previously with some modifications. 8 In brief, synchronized worms (L4 stage) were suspended in a medium containing 95% M9 buffer (3.0 g of KH2PO4, 6.0 g of Na2HPO4, 5.0 g of NaCl, and 1 mL of 1 M MgSO4 × 7H2O in 1 L of water), 5% LB (Luria-Bertani) broth (Oxoid, Basingstoke, UK), and 10 μg of cholesterol (Sigma -Aldrich, Munich, Germany) per mL. The experiment was carried out in 96 -well flat -bottomed microtiter plates (Sarstedt, Nümbrecht, Germany) in the final volume of 100 μL per wel l. 25 μL of this suspension of nematodes (25 –35 nematodes) were transferred to the wells of a 96 -well microtiter plate, where 50 μL of the medium was previously added. Next, 25 μL of a solvent control (DMSO) or 25 μL of a concentrated solution was added to the test wells. The final concentrations of the compounds were 50, 25, 10, and 5 µg/mL. Subsequently, the plates were incubated at 25 °C for 2 days. The fraction of dead worms was determined after 48 h by counting the number of dead worms and the total number of worms in each well, using a stereomicroscope (SMZ143-N2GG, Motic, Germany).
# As a negative control experiment, nematodes were exposed to the medium containing 1% […]
# Ergosterol biosynthesis assay: Ergosterol levels were measured according to the published procedure with some minor modifications. 10 Briefly, a sing le C. albicans colony from an overnight Sabouraud dextrose agar plate was used to inoculate 50 ml of Sabouraud dextrose broth containing 0.5 MIC concentrated compounds. Incubation was performed for 18 h at 37 °C on the rotary shaker at 180 rpm. Cells were harvested by centrifugation at 3000 rpm for 5 min and washed once with sterile distilled water. The net wet weight of the cell pellet was determined. Three milliliters of 25% alcoholic potassium hydroxide solution (25 g of KOH and 35 ml of sterile distill ed water, brought to 100 ml with 100% ethanol), was added to each pellet and vortex mixed for 1 min and incubated in an 85 °C water bath for 1 h. Tubes were cooled to room temperature and extraction of sterols was done with the addition of a mixture of 1 ml of sterile distilled water and 3 ml of n-heptane followed by vigorous vortex mixing for 3 min. The heptane layer was used for spectrophotometrically measuring ergosterol concentrations by scanning absorbance between 240 nm and 300 nm using Ultrospec 3300pro 573 (Amer sham Biosciences, Amersham, UK).
# [2] = tested on: human lung fibroblast cell line (MRC-5); assay: Cytotoxicity evaluation by MTT assay; assay type: cell-based
# From the text: as §1
# Antimicrobial assay: According to the standard broth micro-dilution assays, following the Standards of European Committee on Antimicrobial Susceptibility Testing (v 7.3.1: Method for the determination of broth dilution minimum inhibitory concentrations of antifungal agents for yeasts) for Candida spp., and according to the standard broth micro-dilution assays, recommended by the National Committee for Clinical Laboratory Standards (M07-A8) for bacteria MIC values of compounds were determinate. Compounds were dissolved in DMSO at a concentration of 50 mg/mL, and the highest tested concentration was 250 µg/mL. The inoculums were 1x10^5 colony forming units (CFU/mL), for Candida species, and bacteria species, 5x10^5 colony forming units (CFU/mL). The MIC value was recorded as the lowest concentration that inhibited the growth after 24 h at 37 °C. Additionally, 5 µL from each well of 96 well plates was transferred to Luria Agar (LA) plates for bacteria and Sabouraud agar (SAB) plates for Candida spp. and incubated for an additional 24 h at 37 °C, to determine MBC (Minimum bactericidal/fungicidal concentration) values. In Table 1. Are labeled compounds showing a difference in MBC and previously determined MIC values.
# Cytotoxicity evaluation: Antiproliferative activity was tested by MTT assay (3-(4,5-dimethylthiazol-2-yl)-2,5-diphenyltetrazoliumbromide) on a human lung fibroblast cell line (MRC-5; ATCC collection). Pre-grown (24 h) cell monolayers (1x10^4 cells per well) in RPMI 1640 medium supplemented with 100 μg/mL streptomycin, 100 U/mL penicillin, and 10% (v/v) FBS (all from Sigma, Munich, Germany) containing the tested compounds at concentrations ranging from 5 to 20 μg/mL were incubated in a humidified atmosphere of 95% air and 5% CO2 at 37 °C for 48 h. The cell viability (extent of MTT reduction) was measured spectrophotometrically at 540 nm using the Epoch 2000 multiplate reader, and the cell survival was expressed as a percentage of the control (untreated cells). Cytotoxicity was expressed as the concentration of the compound inhibiting cell growth by 50% (IC 50). […]
# [3] = B. subtilis ATCC6633, 24 h at 37 °C, highest tested concentration 250 µg/mL
# [4] = C. albicans ATCC10231, 24 h at 37 °C, highest tested concentration 250 µg/mL
# [5] = P. aeruginosa ATCC27853, 24 h at 37 °C, highest tested concentration 250 µg/mL
# [6] = S. aureus MRSA, 24 h at 37 °C, highest tested concentration 250 µg/mL
# [7] = E. coli NCTC9001, 24 h at 37 °C, highest tested concentration 250 µg/mL
# [8] = S. aureus ATCC25923, 24 h at 37 °C, highest tested concentration 250 µg/mL
Compound,MIC (B. subtilis ATCC6633; [3]) [µg/mL],MIC (C. albicans ATCC10231; [4]) [µg/mL],MIC (P. aeruginosa ATCC27853; [5]) [µg/mL],MIC (S. aureus MRSA; [6]) [µg/mL],MIC (E. coli NCTC9001; [7]) [µg/mL],MIC (S. aureus ATCC25923; [8]) [µg/mL],improvement of antibacterial activity compared to sorrentanone (7) [1],in vivo toxicity (in words) (Caenorhabditis elegans),"cell survival ([2]; MRC-5 cells, 10 µg/mL, 48 h)","MIC (B. subtilis ATCC6633; ATCC6633, 24 h) [µg/mL]","MIC (C. albicans ATCC10231; ATCC10231, 24 h) [µg/mL]","MIC (P. aeruginosa ATCC27853; ATCC27853, 24 h) [µg/mL]","MIC (S. aureus MRSA; MRSA, 24 h) [µg/mL]","MIC (E. coli NCTC9001; NCTC9001, 24 h) [µg/mL]","MIC (S. aureus ATCC25923; ATCC25923, 24 h) [µg/mL]","selectivity index (SI) ([2]; cytotoxicity versus antibiotic activity, calculation not described)"
COC(=O)C1=C(C)C(=O)C(O)=C(C)C1=O [compound 28],15.6,> 250,> 250,31.2,> 250,62.5,,,,,,,,,,
CCOC(=O)C1=C(C)C(=O)C(O)=C(C)C1=O [compound 29],15.6,> 250,> 250,62.5,> 250,62.5,,,,,,,,,,
CCCOC(=O)C1=C(C)C(=O)C(O)=C(C)C1=O [compound 30],15.6,> 250,> 250,62.5,> 250,62.5,,,,,,,,,,
CCCCOC(=O)C1=C(C)C(=O)C(O)=C(C)C1=O [compound 31],15.6,> 250,> 250,31.2,> 250,31.2,,,,,,,,,,
CC1=C(O)C(=O)C(C)=C(C(=O)OCC(C)C)C1=O [compound 32],31.2,> 250,> 250,31.2,> 250,31.2,,,,,,,,,,
CCCCCOC(=O)C1=C(C)C(=O)C(O)=C(C)C1=O [compound 33],15.6,> 250,> 250,15.6,> 250,15.6,two- to four-fold improved activity,comparatively lower in vivo toxicity,,,,,,,,
CC1=C(O)C(=O)C(C)=C(C(=O)OCCC(C)C)C1=O [compound 34],15.6,> 250,> 250,15.6,> 250,15.6,two- to four-fold improved activity,,,,,,,,,
CCCCCCOC(=O)C1=C(C)C(=O)C(O)=C(C)C1=O [compound 35],7.81,62.5,> 250,31.2,> 250,31.2,,,,,,,,,,
C=CCCOC(=O)C1=C(C)C(=O)C(O)=C(C)C1=O [compound 37],31.2,> 250,> 250,31.2,> 250,62.5,,,,,,,,,,
C#CCCOC(=O)C1=C(C)C(=O)C(O)=C(C)C1=O [compound 38],31.2,> 250,> 250,31.2,> 250,62.5,,,,,,,,,,
C#CCCCOC(=O)C1=C(C)C(=O)C(O)=C(C)C1=O [compound 40],31.2,62.5,> 250,62.5,> 250,31.2,,,over 60%,,,,,,,
"CN[C@H](CC(C)C)C(=O)N[C@H]1C(=O)N[C@@H](CC(N)=O)C(=O)N[C@H]2C(=O)N[C@H]3C(=O)N[C@H](C(=O)N[C@H](C(=O)O)c4cc(O)cc(O)c4-c4cc3ccc4O)[C@H](O)c3ccc(c(Cl)c3)Oc3cc2cc(c3O[C@@H]2O[C@H](CO)[C@@H](O)[C@H](O)[C@H]2O[C@H]2C[C@](C)(N)[C@H](O)[C@H](C)O2)Oc2ccc(cc2Cl)[C@H]1O [vancomycin, reference compound]",,,,,,,,,,0.4,50,125,0.5,125,1,200
